Structures can show the parent of a compound that is named as a salt.
Each compound was assayed against T1, Recombinant human HSD17B13 enzyme (Homo sapiens, UniProt Q7Z5P4) (assay: HSD17b13 NAD(P)H-Glo biochemical assay). Settings: 50 μM estradiol, 1 mM NAD+, 37° C. for 3 hours; read-out: HSD17β13 IC50.
T1 sequence (Q7Z5P4 20-300): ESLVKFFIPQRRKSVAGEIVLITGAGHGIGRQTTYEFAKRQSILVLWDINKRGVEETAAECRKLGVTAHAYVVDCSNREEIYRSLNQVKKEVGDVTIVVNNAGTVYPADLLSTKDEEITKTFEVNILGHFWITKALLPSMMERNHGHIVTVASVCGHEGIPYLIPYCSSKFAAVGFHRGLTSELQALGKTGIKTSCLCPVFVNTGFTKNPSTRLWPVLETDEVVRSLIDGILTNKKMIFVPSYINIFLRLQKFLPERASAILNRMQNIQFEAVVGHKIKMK
Procedure: Example B-1: HSD17b13 NAD (P) H-Glo Biochemical Assay
Recombinant human HSD17B13 enzyme. Substrate: estradiol (Sigma β-Estradiol E8875), 100 mM in DMSO. Cofactor: NAD+ Grade I free acid (Sigma 10127965001), 20 mM in H2O. Assay buffer final concentration: 20 mM Tris pH7.4 with 0.002% Tween-20 and 0.02% BSA. Assay performed in 384 well solid bottom plate (Corning 3570). Enzymatic activity detected by NAD (P) H-Glo™ Detection System (Promega G9062).
Inhibitor compounds were serially diluted in DMSO and then further diluted in assay buffer to a 10× concentration consisting of 1% DMSO.
HSD17b13 enzyme was diluted in 1× assay buffer to the desired enzyme concentration based on the specific activity of the enzyme lot. 20 μL of diluted enzyme was added to each well along with 2.5 μL of 10× inhibitor solution. Assay plate was incubated at RT for 20 minutes, and then 2.5 μL of a 10× substrate/cofactor mix was added to each well for a final concentration of 50 μM estradiol and 1 mM NAD+. Assay plate was incubated at 37° C. for 3 hours. NAD (P) H-Glo™ Detection System reagents were prepared according to manufacturer's specifications, and 25 μL was added to each well. After incubating for 1 hour at RT, luminescence was measured.
An IC50 of at most 100 nM was found for `Cc1cc(-c2nn(C)c3nc(N4CCN(S(C)(=O)=O)C[C@H]4Cc4ccccc4)ncc23)c(F)c(O)c1F` [Compound 11.08, (R)-3-(6-(2-Benzyl-4-(methylsulfonyl)piperazin-1-yl)-1-methyl-1H-pyrazolo[3,4-d]pyrimidin-3-yl)-2,6-difluoro-5-methylphenol] in this work. An IC50 of at most 100 nM was found for `Oc1c(F)c(-c2n[nH]c3nc(N4CCOC[C@H]4Cc4ccccc4)ncc23)cc(C(F)(F)F)c1F` [Compound 5.20, (R)-3-(6-(3-Benzylmorpholino)-1H-pyrazolo[3,4-d]pyrimidin-3-yl)-2,6-difluoro-5-(trifluoromethyl)phenol] in this work. An IC50 of at most 100 nM was found for `CS(=O)(=O)N1CCN(c2ccc(-n3nnc4cc(F)c(O)c(F)c43)cc2)[C@H](Cc2ccccc2)C1` [Compound 1, (R)-1-(4-(2-Benzyl-4-(methylsulfonyl)piperazin-1-yl)phenyl)-5,7-difluoro-1H-benzo[d][1,2,3]triazol-6-ol] in this work. An IC50 of at most 100 nM was found for `CC(C)NC(=O)[C@@H]1COCCN1c1ncc2c(-c3cc(C(F)(F)F)c(F)c(O)c3F)nn(C)c2n1` [Compound 11.24, (S)-4-(3-(2,4-Difluoro-3-hydroxy-5-(trifluoromethyl)phenyl)-1-methyl-1H-pyrazolo[3,4-d]pyrimidin-6-yl)-N-isopropylmorpholine-3-carboxamide] in this work. An IC50 of at most 100 nM was found for `Cn1nc(-c2cc(C(F)(F)F)c(F)c(O)c2F)c2cnc(N3CCC(O)(Cn4cccn4)CC3)nc21` [Compound 5.04, 4-((1H-Pyrazol-1-yl)methyl)-1-(3-(2,4-difluoro-3-hydroxy-5-(trifluoromethyl)phenyl)-1-methyl-1H-pyrazolo[3,4-d]pyrimidin-6-yl)piperidin-4-ol] in this work. An IC50 of 100 to 1000 nM was found for `Cn1nc(-c2cc(C(F)(F)F)c(F)c(O)c2F)c2cnc(C3CCCCN3Cc3ccccc3)nc21` (centres unmarked) [Compound 14, 3-(6-(1-Benzylpiperidin-2-yl)-1-methyl-1H-pyrazolo[3,4-d]pyrimidin-3-yl)-2,6-difluoro-5-(trifluoromethyl)phenol hydrochloride] in this work. An IC50 of at most 100 nM was found for `Cn1nc(-c2cc(C(F)(F)F)c(F)c(O)c2F)c2cnc(N3CCOCC3Cc3ccncc3)nc21` (centres unmarked) [Compound 15.08, 2,6-Difluoro-3-(1-methyl-6-(3-(pyridin-4-ylmethyl)morpholino)-1H-pyrazolo[3,4-d]pyrimidin-3-yl)-5-(trifluoromethyl)phenol] in this work. An IC50 of at most 100 nM was found for `Cc1nn(-c2cc(C(F)(F)F)c(Cl)c(O)c2F)c2cnc(N3CCN(S(C)(=O)=O)C[C@H]3Cc3ccccc3)cc12` [Compound 2.11, (R)-3-(5-(2-Benzyl-4-(methylsulfonyl)piperazin-1-yl)-3-methyl-1H-pyrazolo[3,4-c]pyridin-1-yl)-6-chloro-2-fluoro-5-(trifluoromethyl)phenol] in this work. An IC50 of at most 100 nM was found for `CCn1nc(-c2cc(C(F)(F)F)c(F)c(O)c2F)c2cnc(N3CCN(S(C)(=O)=O)C[C@H]3Cc3ccccc3)nc21` [Compound 11.22, (R)-3-(6-(2-Benzyl-4-(methylsulfonyl)piperazin-1-yl)-1-ethyl-1H-pyrazolo[3,4-d]pyrimidin-3-yl)-2,6-difluoro-5-(trifluoromethyl)phenol] in this work. An IC50 of at most 100 nM was found for `CN(c1ncc2c(-c3cc(C(F)(F)F)c(F)c(O)c3F)nn(C)c2n1)C1CCCN(Cc2ccccc2)C1` (centres unmarked) [Compound 5.36, 3-(6-((1-Benzylpiperidin-3-yl)(methyl)amino)-1-methyl-1H-pyrazolo[3,4-d]pyrimidin-3-yl)-2,6-difluoro-5-(trifluoromethyl)phenol] in this work. An IC50 of at most 100 nM was found for `Cn1nc(-c2cc(C(F)(F)F)c(F)c(O)c2F)c2cnc(N3CCN(S(C)(=O)=O)CC3CC3CCC3)nc21` (centres unmarked) [Compound 11.27, 3-(6-(2-(Cyclobutylmethyl)-4-(methylsulfonyl)piperazin-1-yl)-1-methyl-1H-pyrazolo[3,4-d]pyrimidin-3-yl)-2,6-difluoro-5-(trifluoromethyl)phenol] in this work. An IC50 of at most 100 nM was found for `Cn1nc(-c2cc(C(F)(F)F)c(F)c(O)c2F)c2cnc(N3CCOCC3Cc3cccnc3)nc21` (centres unmarked) [Compound 15.07, 2,6-Difluoro-3-(1-methyl-6-(3-(pyridin-3-ylmethyl)morpholino)-1H-pyrazolo[3,4-d]pyrimidin-3-yl)-5-(trifluoromethyl)phenol] in this work. An IC50 of at most 100 nM was found for `Cn1nc(-c2cc(C(F)(F)F)c(F)c(O)c2F)c2cnc(N3CCO[C@@H](Cc4ccccc4)C3)nc21` [Compound 12, (S)-3-(6-(2-Benzylmorpholino)-1-methyl-1H-pyrazolo[3,4-d]pyrimidin-3-yl)-2,6-difluoro-5-(trifluoromethyl)phenol] in this work. An IC50 of at most 100 nM was found for `Cc1nn(-c2cc(C(F)(F)F)c(Cl)c(O)c2F)c2cnc(N3CCN(S(C)(=O)=O)C[C@H]3Cc3ccccc3)nc12` [Compound 2.21, (R)-3-(5-(2-Benzyl-4-(methylsulfonyl)piperazin-1-yl)-3-methyl-1H-pyrazolo[4,3-d]pyrimidin-1-yl)-6-chloro-2-fluoro-5-(trifluoromethyl)phenol] in this work. An IC50 of at most 100 nM was found for `Cc1nn(-c2cc(C(F)(F)F)c(F)c(O)c2F)c2cnc(N3CCN(S(C)(=O)=O)[C@@H](Cc4ccccc4)C3)cc12` [Compound 2.10, (S)-3-(5-(3-Benzyl-4-(methylsulfonyl)piperazin-1-yl)-3-methyl-1H-pyrazolo[3,4-c]pyridin-1-yl)-2,6-difluoro-5-(trifluoromethyl)phenol] in this work. An IC50 of at most 100 nM was found for `Cn1nc(-c2cc(C(F)(F)F)c(F)c(O)c2F)c2cnc(N3CCOC[C@H]3Cc3ccccc3F)nc21` [Compound 5.25, (R)-2,6-Difluoro-3-(6-(3-(2-fluorobenzyl)morpholino)-1-methyl-1H-pyrazolo[3,4-d]pyrimidin-3-yl)-5-(trifluoromethyl)phenol] in this work. An IC50 of at most 100 nM was found for `CS(=O)(=O)N1CCN(c2ccc3c(c2)c(N)nn3-c2cc(C(F)(F)F)c(F)c(O)c2F)[C@H](Cc2ccccc2)C1` [Compound 2.12, (R)-3-(3-Amino-5-(2-benzyl-4-(methylsulfonyl)piperazin-1-yl)-1H-indazol-1-yl)-2,6-difluoro-5-(trifluoromethyl)phenol] in this work. An IC50 of at most 100 nM was found for `CCN1CCN(c2ncc3c(n2)c(C)nn3-c2cc(C(F)(F)F)c(F)c(O)c2F)[C@H](Cc2ccccc2)C1` [Compound 2.32, (R)-3-(5-(2-Benzyl-4-ethylpiperazin-1-yl)-3-methyl-1H-pyrazolo[4,3-d]pyrimidin-1-yl)-2,6-difluoro-5-(trifluoromethyl)phenol] in this work. An IC50 of at most 100 nM was found for `Cn1nc(-c2cc(C(F)(F)F)c(F)c(O)c2F)c2cnc(N3CCOC[C@H]3CC3CCCCC3)nc21` (single isomer, unassigned) [Compound 15.04] in this work. An IC50 of at most 100 nM was found for `Cn1nc(-c2cc(C(F)(F)F)c(F)c(O)c2F)c2cnc(N3CCOC[C@@H]3Cc3ccccc3)nc21` [Compound 5.09, (S)-3-(6-(3-Benzylmorpholino)-1-methyl-1H-pyrazolo[3,4-d]pyrimidin-3-yl)-2,6-difluoro-5-(trifluoromethyl)phenol] in this work. An IC50 of at most 100 nM was found for `CS(=O)(=O)N1CCN(c2ccc3c(c2)c(Cl)nn3-c2cc(C(F)(F)F)c(F)c(O)c2F)[C@H](Cc2ccccc2)C1` [Compound 2.06, (R)-3-(5-(2-Benzyl-4-(methylsulfonyl)piperazin-1-yl)-3-chloro-1H-indazol-1-yl)-2,6-difluoro-5-(trifluoromethyl)phenol] in this work. An IC50 of at most 100 nM was found for `CNc1nn(-c2cc(C(F)(F)F)c(F)c(O)c2F)c2cnc(N3CCN(S(C)(=O)=O)C[C@H]3Cc3ccccc3)cc12` [Compound 2.24, (R)-3-(5-(2-Benzyl-4-(methylsulfonyl)piperazin-1-yl)-3-(methylamino)-1H-pyrazolo[3,4-c]pyridin-1-yl)-2,6-difluoro-5-(trifluoromethyl)phenol] in this work. An IC50 of at most 100 nM was found for `CS(=O)(=O)N1CCN(c2cc3c(Cl)nn(-c4cc(C(F)(F)F)c(F)c(O)c4F)c3cn2)[C@H](Cc2ccccc2)C1` [Compound 2.20, (R)-3-(5-(2-Benzyl-4-(methylsulfonyl)piperazin-1-yl)-3-chloro-1H-pyrazolo[3,4-c]pyridin-1-yl)-2,6-difluoro-5-(trifluoromethyl)phenol] in this work. An IC50 of at most 100 nM was found for `Cc1ccc([C@@H](O)[C@H]2CN(c3ncc4c(-c5cc(C(F)(F)F)c(F)c(O)c5F)nn(C)c4n3)CCO2)cc1` [Compound 13, 2,6-Difluoro-3-(6-((R)-2-((R)-hydroxy(p-tolyl)methyl)morpholino)-1-methyl-1H-pyrazolo[3,4-d]pyrimidin-3-yl)-5-(trifluoromethyl)phenol] in this work. An IC50 of at most 100 nM was found for `Cc1c(C(F)(F)F)cc(-c2nn(C)c3nc(N4CCN(S(C)(=O)=O)C[C@H]4Cc4ccccc4)ncc23)c(F)c1O` [Compound 11.19, (R)-3-(6-(2-Benzyl-4-(methylsulfonyl)piperazin-1-yl)-1-methyl-1H-pyrazolo[3,4-d]pyrimidin-3-yl)-2-fluoro-6-methyl-5-(trifluoromethyl)phenol] in this work. An IC50 of at most 100 nM was found for `Cc1nn(-c2ccc(F)c(O)c2F)c2cnc(N3CCN(S(C)(=O)=O)C[C@H]3Cc3ccccc3)cc12` [Compound 2.15, (R)-3-(5-(2-Benzyl-4-(methylsulfonyl)piperazin-1-yl)-3-methyl-1H-pyrazolo[3,4-c]pyridin-1-yl)-2,6-difluorophenol] in this work.

— patent US20240368127A1, “HSD17B13 INHIBITORS AND USES THEREOF” (FL2022-001, Inc., priority 2021, published 2024)
